Results: PubChem BioAssay (NCI)
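Compound exposure: 48 hours, 5 concentrations, 96-well plates. The concentration for 50% growth inhibition is given as GI50. At the TGI there is no net growth.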

Tests used:
Experiment in all cases: DTP human tumour cell line panel, 48 h
NCI-H522 lung = tested on: NCI-H522 lung
MDA-MB-231 breast = tested on: MDA-MB-231 breast
U251 CNS = tested on: U251 CNS
T-47D breast = tested on: T-47D breast
HCC-2998 colon = tested on: HCC-2998 colon
SNB-75 CNS = tested on: SNB-75 CNS
OVCAR-3 ovarian = tested on: OVCAR-3 ovarian
SF-295 CNS = tested on: SF-295 CNS
OVCAR-5 ovarian = tested on: OVCAR-5 ovarian
TK-10 renal = tested on: TK-10 renal

| Compound | GI50 (NCI-H522 lung) [µM] | TGI (NCI-H522 lung) [µM] | GI50 (MDA-MB-231 breast) [µM] | TGI (MDA-MB-231 breast) [µM] | GI50 (U251 CNS) [µM] | TGI (U251 CNS) [µM] | GI50 (T-47D breast) [µM] | TGI (T-47D breast) [µM] | GI50 (HCC-2998 colon) [µM] | TGI (HCC-2998 colon) [µM] | GI50 (SNB-75 CNS) [µM] | TGI (SNB-75 CNS) [µM] | GI50 (OVCAR-3 ovarian) [µM] | TGI (OVCAR-3 ovarian) [µM] | GI50 (SF-295 CNS) [µM] | TGI (SF-295 CNS) [µM] | GI50 (OVCAR-5 ovarian) [µM] | TGI (OVCAR-5 ovarian) [µM] | GI50 (TK-10 renal) [µM] | TGI (TK-10 renal) [µM] |
| --- | --- | --- | --- | --- | --- | --- | --- | --- | --- | --- | --- | --- | --- | --- | --- | --- | --- | --- | --- | --- |
| Nc1ccc(C#Cc2cncnc2Nc2ccc(OCc3cccc(F)c3)c(Cl)c2)cc1 | 4.94 | > 23.2 | 8.08 | > 25 | > 14 | > 25 | 6.17 | > 25 | 11.1 | > 25 | > 12.1 | 24.5 | 8.87 | > 25 | 10.6 | > 25 | > 25 | > 25 | 3.58 | > 25 |
| COC(=O)c1ccccc1NC(=O)C(=O)CC(=O)c1ccccc1NC1=CC(=O)C(=O)c2ccccc21 |  | 21.4 |  | 23 |  | 67.4 |  | > 95 |  | 66.7 |  | 40.3 |  | 12.3 |  | > 49.8 |  | 57.7 |  | > 95.1 |
| COc1ccc(C2NCCc3c2[nH]c2ccccc32)cc1CN1CCN(c2ccc(F)cc2)CC1 (stereo not given) | 1.93 | 3.73 | 1.4 | 3.36 | 1.56 | 2.93 | 1.88 | 3.94 | 1.61 | 3.33 | 1.25 | 2.52 | 2.1 | 4.52 | 1.75 | 3.4 | 2.13 | 5.2 | 3.2 | 9.65 |
| O=C(Nc1cnn2ccc(N3CCC[C@@H]3c3cc(F)ccc3F)nc12)N1CC[C@H](O)C1 | > 100 | > 100 | > 100 | > 100 | > 100 | > 100 | > 100 | > 100 | > 100 | > 100 | > 100 | > 100 | > 100 | > 100 | > 100 | > 100 | > 100 | > 100 | > 100 | > 100 |
| O=C1c2cccnc2-c2nc(/C=C/c3ccccc3)cc3c2c1nc1ccccc13 | 1.76 | 3.47 | 6.95 | > 80.8 | 2.9 | 11.1 | 6.16 | > 78.7 | 1.81 | 3.2 | 2 | 8.06 | 1.9 | 4.69 | 2.31 | 5.27 | 11.8 | 25.4 | 19.1 | 43.2 |
| CCCCCCCCOc1ccc(/C=N/Nc2cc(C)nc3ccc(Cl)cc23)cc1 | 1.89 | 3.86 | 1.81 | 3.47 | 1.82 | 3.39 | 1.92 | 4.09 | 2.03 | 3.59 | 1.86 | 3.49 | 2.17 | 3.82 | 1.83 | 3.45 | 1.79 | 3.2 | 1.91 | 3.33 |
| COc1ncc(-c2nc3c(n2C(C)C)[C@H](c2ccc(Cl)cc2)N(c2cc(Cl)cn(C)c2=O)C3=O)c(OC)n1 | 69.2 | > 100 | 29.6 | > 100 | 40.5 | > 100 | 29.5 | > 100 | 60.1 | > 100 | 30 | > 100 | 46 | > 100 | 36.8 | > 100 | > 100 | > 100 | 36.8 | > 100 |
